The values below come from patent US9044397B2, “Medical devices with galvanic particulates” (Ethicon, Inc., priority 2009, dated 2015).

What all share (format): cell-based
Experiment [1] deals with C. albicans. Kind of experiment: Zone of inhibition on TSA agar versus copper acetate and zinc acetate. As to conditions: about 6 log CFU, 37° C. 24 hr. How it is done:
(§1) Zone of inhibition testing was performed on agar discs containing copper-zinc galvanic particulates from Example 1(a) at 0.5%, Zn acetate at 0.5%, and Cu acetate at 0.1%. The discs were placed on TSA agar surface, inoculated with about 6 log CFU of MRSA or C. albicans, and incubated at 37° C. for 24 hr.

Experiment [2] has as its system MRSA. The description is as above. Particulars: about 6 log CFU, 37° C. 24 hr. The protocol:
as §1

Experiment [3] concerns C. albicans. As to the kind of experiment: Sustained efficacy, zone of inhibition day 1 and re-plated day 2. Particulars: 1% in agar disc. The protocol:
(§2) Agars discs containing either galvanic particulates as described in Example 1(a) or zinc acetate at 1% were placed on TSA agar surface inoculated with about 6 log CFU of MRSA or C. albicans and incubated at 37° C. for 24 hr (day-1).

Experiment [4] concerns MRSA. The description is as above. Particulars: 1% in agar disc. The protocol:
as §2

The mark [5] stands for this setting: same disc moved to newly inoculated plate, day-2.

Regarding `CC(=O)[O-].CC(=O)[O-].[Zn+2]` [Zinc Acetate, zinc acetate], in the experiment on C. albicans [1] (0.5% in agar disc), the “zone of inhibition, C. albicans” value is “smaller zone of inhibition, approximately one half the radius”. The “zone of inhibition, MRSA” value with MRSA [2] (0.5% in agar disc) is “smaller zone of inhibition, approximately one half the radius”. Also, the “zone of inhibition, C. albicans, day 1” value with C. albicans [3] (day-1, 24 hr at 37° C.) is recorded as “produce a zone of inhibition”. Moreover, the “zone of inhibition, C. albicans, day 2” value with C. albicans [3] (setting [5]) is recorded as “did not show any inhibition”. Moreover, the “zone of inhibition, MRSA, day 1” value in the experiment on MRSA [4] (day-1, 24 hr at 37° C.) is “produce a zone of inhibition”. For the same compound, in the experiment with MRSA [4] (setting [5]), the “zone of inhibition, MRSA, day 2” value is listed as “did not show any inhibition”.

Turning to copper acetate, in the experiment on C. albicans [1] (0.1% in agar disc), the “zone of inhibition, C. albicans” value is listed as “did not show any visible zone of inhibition”. Moreover, in the experiment with MRSA [2] (0.1% in agar disc), the “zone of inhibition, MRSA” value was “did not show any visible zone of inhibition”.
